Laboratory results from publication PMC5310151 (Saudi Pharmaceutical Journal : SPJ, 2016).

Key:
[1] = biological target: T1, PPARα (Mus musculus, UniProt P23204); assay: PPRE luciferase reporter assay in HepG2 cells transfected with PPARα; assay type: cell-based; conditions: HepG2, read-out: Fold induction / PPAR alpha / 50 μg/ml
T1 sequence (P23204 1-468): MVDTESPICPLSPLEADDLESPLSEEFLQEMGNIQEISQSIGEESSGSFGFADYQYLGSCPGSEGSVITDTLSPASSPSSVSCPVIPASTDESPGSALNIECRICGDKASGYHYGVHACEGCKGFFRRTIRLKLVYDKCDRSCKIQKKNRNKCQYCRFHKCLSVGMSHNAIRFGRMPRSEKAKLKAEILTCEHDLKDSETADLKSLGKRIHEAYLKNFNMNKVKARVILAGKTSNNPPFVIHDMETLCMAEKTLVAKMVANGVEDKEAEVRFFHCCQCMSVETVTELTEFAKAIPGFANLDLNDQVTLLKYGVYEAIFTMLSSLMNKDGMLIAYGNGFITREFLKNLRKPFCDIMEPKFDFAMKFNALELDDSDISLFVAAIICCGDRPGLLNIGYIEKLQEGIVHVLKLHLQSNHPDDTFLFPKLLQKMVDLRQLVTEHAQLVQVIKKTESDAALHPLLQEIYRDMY

[2] = biological target: T2, PPARγ (Rattus norvegicus, UniProt O88275); assay: PPRE luciferase reporter assay in HepG2 cells transfected with PPARγ; assay type: cell-based; conditions: HepG2, read-out: Fold induction / PPAR gamma / 50 μg/ml
T2 sequence (O88275 1-505): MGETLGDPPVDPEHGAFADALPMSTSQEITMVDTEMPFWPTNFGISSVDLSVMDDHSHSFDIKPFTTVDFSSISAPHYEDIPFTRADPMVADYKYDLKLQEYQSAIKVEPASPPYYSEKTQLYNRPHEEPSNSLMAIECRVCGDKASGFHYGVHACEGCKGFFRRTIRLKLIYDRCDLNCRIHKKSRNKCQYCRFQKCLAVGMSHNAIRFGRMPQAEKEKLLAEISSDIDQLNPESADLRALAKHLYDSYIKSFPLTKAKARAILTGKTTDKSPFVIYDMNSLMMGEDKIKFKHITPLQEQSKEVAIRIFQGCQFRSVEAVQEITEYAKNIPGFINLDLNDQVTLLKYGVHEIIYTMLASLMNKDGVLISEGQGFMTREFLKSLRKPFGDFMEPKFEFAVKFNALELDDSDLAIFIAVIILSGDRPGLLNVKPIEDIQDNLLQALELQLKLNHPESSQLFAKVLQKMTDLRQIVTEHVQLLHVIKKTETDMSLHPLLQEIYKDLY

| fold induction [1] | fold induction at 10 µM [2] | SMILES |
| --- | --- | --- |
| 2.2 ± 0.21 |  | CC(C)(Oc1ccc(C2CC2(Cl)Cl)cc1)C(=O)O (centres unmarked) [Ciprofibrate] |
|  | 4.33 ± 0.54 | CN(CCOc1ccc(CC2SC(=O)NC2=O)cc1)c1ccccn1 (centres unmarked) [Rosiglitazone] |
